Reference: ChEMBL document CHEMBL1201862, “PubChem BioAssay data set” (2004)
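Each compound was tested at five concentrations against cells in 96-well plates for 48 hours. The concentration for 50% growth inhibition is given as GI50.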 Active and inactive are the calls of the source. Rule as the data show it: active = GI50 up to about 1.1 µM and inactive = higher.

How the values were obtained:
Assay in all cases: NCI-60 cell line screen, 48 h
A549 = system: A549
ACHN = system: ACHN
CAKI-1 = system: CAKI-1
CCRF-CEM = system: CCRF-CEM
COLO 205 = system: COLO 205
HOP-92 = system: HOP-92
IGROV-1 = system: IGROV-1
MCF7 = system: MCF7
MDA-N = system: MDA-N
MOLT-4 = system: MOLT-4
NCI-H522 = system: NCI-H522
OVCAR-3 = system: OVCAR-3
OVCAR-5 = system: OVCAR-5
OVCAR-8 = system: OVCAR-8
PC-3 = system: PC-3
SF-539 = system: SF-539
SK-MEL-28 = system: SK-MEL-28
SNB-19 = system: SNB-19
UACC-62 = system: UACC-62

Measured: GI50

CC(CO)CCNc1ncnc2c1ncn2CCC(=O)O (stereo not drawn)
inactive: A549 > 100 µM | ACHN > 100 µM | CAKI-1 > 100 µM | CCRF-CEM > 100 µM | COLO 205 > 100 µM | HOP-92 > 100 µM | IGROV-1 > 100 µM | MCF7 > 100 µM | MDA-N > 100 µM | MOLT-4 > 100 µM | NCI-H522 > 100 µM | OVCAR-3 > 100 µM | OVCAR-5 > 100 µM | OVCAR-8 > 100 µM | PC-3 > 100 µM | SF-539 > 100 µM | SK-MEL-28 > 100 µM | SNB-19 > 100 µM | UACC-62 > 100 µM

CC(=O)N1CC(C)(C)c2c(C)c(O)c(C)c(C)c21
inactive: A549 > 100 µM | ACHN > 100 µM | CCRF-CEM > 100 µM | COLO 205 > 100 µM | HOP-92 > 100 µM | IGROV-1 > 100 µM | MCF7 > 100 µM | MDA-N > 100 µM | MOLT-4 > 100 µM | NCI-H522 > 100 µM | OVCAR-3 > 100 µM | OVCAR-5 > 100 µM | OVCAR-8 > 100 µM | PC-3 > 100 µM | SF-539 > 100 µM | SK-MEL-28 > 100 µM | SNB-19 > 100 µM | UACC-62 > 100 µM

O=[N+]([O-])/C=C1\COCc2cc3c(cc21)OCO3
inactive: A549 22 µM | ACHN 20.8 µM | CAKI-1 13 µM | CCRF-CEM 10.6 µM | COLO 205 23.1 µM | HOP-92 30.7 µM | IGROV-1 35.6 µM | MCF7 18.5 µM | MDA-N 18.9 µM | MOLT-4 24.5 µM | NCI-H522 20.7 µM | OVCAR-3 16.8 µM | OVCAR-5 19.9 µM | OVCAR-8 27.8 µM | PC-3 12.3 µM | SF-539 26.4 µM | SK-MEL-28 17.5 µM | UACC-62 21.1 µM

O=C(Nn1c(-c2ccccc2)nc2ccccc2c1=O)c1ccc(O)cc1
inactive: A549 > 100 µM | ACHN > 100 µM | CCRF-CEM > 100 µM | COLO 205 > 100 µM | HOP-92 > 100 µM | IGROV-1 > 100 µM | MCF7 > 100 µM | MDA-N > 100 µM | MOLT-4 > 100 µM | NCI-H522 > 100 µM | OVCAR-3 > 100 µM | OVCAR-5 > 100 µM | OVCAR-8 > 100 µM | PC-3 > 100 µM | SF-539 > 100 µM | SK-MEL-28 > 100 µM | SNB-19 > 100 µM | UACC-62 > 100 µM
